Results on 36 compounds are retold here after ChEMBL document CHEMBL4385630, “The synthesis and evaluation of quinolinequinones as anti-mycobacterial agents” (2019).

Values after ≈ are worked out from the molar mass of the structure shown. Active and inactive are the calls of the source. The calls are words filed in the database; no cut-off is given here. Some results are limits rather than exact numbers.

One may read the MIC as the lowest concentration found to suppress growth.

The test system of test [1] is Mycobacterium tuberculosis. In words: Antimycobacterial activity against Mycobacterium tuberculosis MC2 6230 assessed as reduction in cell viability incubated for 5 days by resazurin based method. In kind it is functional. The settings on record: MC2 6230, 120 h.
A short description of test [2]: Electrochemical behavior of the compound in acetonitrile assessed as redox potential E2 at 1 mM using Ag/Ag+ electrode by cyclic voltammetry.
Test [3] can be described thus: Electrochemical behavior of the compound in acetonitrile assessed as redox potential E1 at 1 mM using Ag/Ag+ electrode by cyclic voltammetry.
The nature of test [4]: Electrochemical behavior of the compound in acetonitrile/tolunene assessed as redox potential E1 at 1 mM using Ag/Ag+ electrode by cyclic voltammetry.
Test [5] in a line: Electrochemical behavior of the compound in acetonitrile/tolunene assessed as redox potential E2 at 1 mM using Ag/Ag+ electrode by cyclic voltammetry.
Test [6] has as its system Mycolicibacterium smegmatis MC2 155. Nature of the test: Activation of NDH-2 in Mycobacterium smegmatis MC2 155 inverted membrane vesicles assessed as increase in oxygen consumption rate in presence of NADH by fluorespirometry.
The test system of test [7] is Mycobacterium tuberculosis. Nature of the test: Antimycobacterial activity against Mycobacterium tuberculosis incubated for 7 days by resazurin dye based assay. It counts as functional. The settings on record: 168 h.
For test [8], the system named is Mycobacterium tuberculosis. Nature of the test: Antimycobacterial activity against Mycobacterium tuberculosis H37Rv incubated fro 96 hrs. It counts as functional.

Take `C#CCNC1=C(Cl)C(=O)c2ccc(C)nc2C1=O`: the MIC in test [1] was 256 µM (≈ 66.7 µg/mL). In addition, the Activity in test [2] is -1.1 V; in test [3], -0.51 V.
On the same counts, the results for `Cc1ccc2c(n1)C(=O)C(Cl)=C(NC(C)(C)C)C2=O` are 256 µM (≈ 71.4 µg/mL), -1.25 V and -0.69 V.
In the same order, the values of `CCCCCCCCNC1=C(Cl)C(=O)c2nc(C)ccc2C1=O` are 128 µM (≈ 42.9 µg/mL), -1.27 V and -0.72 V.
In the same order, the values of `CCCCCCCCNC1=C(Cl)C(=O)c2cccnc2C1=O` are 64 µM (≈ 20.5 µg/mL), -1.27 V and -0.68 V.
Consider `CCCNC1=C(Cl)C(=O)c2ccc(C)nc2C1=O`, for which the MIC in test [1] came out at 128 µM (≈ 33.9 µg/mL). Further, the Activity is -0.97 V in test [2] and -0.56 V in test [3].
`CCCCCCCCCCCCCCc1ccc(NC2=C(Cl)C(=O)c3cccnc3C2=O)cc1`: the minimal inhibitory concentration (MIC) in test [1] is more than 512 µM. The Activity in test [4] is -0.44 V; in test [5], -1 V.
`CCCNC1=C(Cl)C(=O)c2cccnc2C1=O`: the minimum inhibitory concentration (MIC) in test [1] stood at 128 µM (≈ 32.1 µg/mL). The Activity is -1.16 V in test [2] and -0.59 V in test [3].
In the same order, the values of `Cc1ccc2c(n1)C(=O)C(NC(C)(C)C)=C(Cl)C2=O` are more than 512 µM, -1.1 V and -0.59 V.
On the same counts, the results for `C#CCNC1=C(Cl)C(=O)c2cccnc2C1=O` are 128 µM (≈ 31.6 µg/mL), -1.07 V and -0.49 V.
On the same counts, the results for `Cc1ccc2c(n1)C(=O)C(NCCc1ccccc1)=C(Cl)C2=O` are 16 µM (≈ 5.23 µg/mL), -1.3 V and -0.7 V.
`CCCNC1=C(Cl)C(=O)c2nc(C)ccc2C1=O`: in test [1], the MIC is 512 µM (≈ 136 µg/mL). The Activity in test [2] is -1.17 V; in test [3] it was -0.6 V.
As for `CC1=CC(=O)c2ccccc2C1=O`, the figures for the Activity in test [2] and in test [3] were -1.27 V and -0.7 V, respectively.
For `C#CCNC1=C(Cl)C(=O)c2ncccc2C1=O`, the MIC in test [1] was determined as 8 µM (≈ 1.97 µg/mL). Further, in test [6], the result was Active. Besides, the Activity in test [2] was -1.1 V; in test [3], -0.5 V.
For the compound `Cc1ccc2c(n1)C(=O)C(N1CCCCC1)=C(Cl)C2=O`, the MIC in test [1] amounted to 256 µM (≈ 74.4 µg/mL). Moreover, the Activity is -1.17 V in test [2] and -0.61 V in test [3].
On to `CCCCCCCCNC1=C(Cl)C(=O)c2ncccc2C1=O`, for which the MIC in test [1] stood at 16 µM (≈ 5.13 µg/mL). Also, the Activity in test [2] was -1.26 V; in test [3] it was -0.67 V.
In the same order, the values of `Cc1ccc2c(n1)C(=O)C(Nc1ccccc1)=C(Cl)C2=O` are 256 µM (≈ 76.5 µg/mL), -0.9 V and -0.44 V.
For `COc1ccc(CNC2=C(Cl)C(=O)c3ccc(C)nc3C2=O)cc1`, the minimum inhibitory concentration (MIC) in test [1] was found to be 16 µM (≈ 5.48 µg/mL). The Activity in test [2] is -1.1 V; in test [3], -0.52 V.
In the same order, the values of `CCCCCCCc1ccc(NC2=C(Cl)C(=O)c3ncccc3C2=O)cc1` are 64 µM (≈ 24.5 µg/mL), -1.15 V and -0.58 V.
`C#CCNC1=C(Cl)C(=O)c2nc(C)ccc2C1=O`: in test [1], the MIC stood at 64 µM (≈ 16.7 µg/mL). Further, the Activity in test [2] was -1.05 V; in test [3], -0.55 V.
On the same counts, the results for `O=C1C(Cl)=C(NCCc2ccccc2)C(=O)c2ncccc21` are 16 µM (≈ 5 µg/mL), -1.21 V and -0.64 V.
In the same order, the values of `Cc1ccc2c(n1)C(=O)C(Cl)=C(N(C)C)C2=O` are 512 µM (≈ 128 µg/mL), -1.11 V and -0.62 V.
On the same counts, the results for `Cc1ccc2c(n1)C(=O)C(Cl)=C(NCCc1ccccc1)C2=O` are 128 µM (≈ 41.8 µg/mL), -1.3 V and -0.73 V.
Take `COc1ccc(CNC2=C(Cl)C(=O)c3ncccc3C2=O)cc1`: in test [1], the MIC was found to be 32 µM (≈ 10.5 µg/mL). Further, the Activity in test [2] was -1.18 V; in test [3], -0.61 V.
As to `CCCCCCCCCCCCCCc1ccc(NC2=C(Cl)C(=O)c3ncccc3C2=O)cc1`, in test [1], the MIC was more than 512 µM. Besides, the Activity in test [4] was -0.78 V; in test [5], -1.1 V.
On to `COc1ccc(CNC2=C(Cl)C(=O)c3cccnc3C2=O)cc1`, for which, in test [1], the MIC stood at 16 µM (≈ 5.26 µg/mL). Further, the results for the Activity in test [2] and in test [3] were -1.24 V and -0.63 V, respectively.
Consider `O=C1C(NCCCl)=C(Cl)C(=O)c2ncccc21`, for which, in test [7], the lowest concentration to inhibit growth (MIC) was 8 µM (≈ 2.17 µg/mL).
For `O=C1C(Cl)=C(Nc2ccccc2)C(=O)c2ncccc21`, in test [1], the MIC stood at 512 µM (≈ 146 µg/mL). Besides, the Activity in test [2] is -1 V; in test [3] it was -0.42 V.
In the same order, the values of `CCCCCCCc1ccc(NC2=C(Cl)C(=O)c3cccnc3C2=O)cc1` are 32 µM (≈ 12.3 µg/mL), -1.08 V and -0.57 V.
In the same order, the values of `O=C1C(Nc2ccccc2)=C(Cl)C(=O)c2ncccc21` are more than 512 µM, -1.06 V and -0.46 V.
As to `CCCNC1=C(Cl)C(=O)c2ncccc2C1=O`, the MIC in test [1] amounted to 128 µM (≈ 32.1 µg/mL). For the same compound, the Activity was -1.16 V in test [2] and -0.6 V in test [3].
On the same counts, the results for `Cc1ccc2c(n1)C(=O)C(Cl)=C(N1CCCCC1)C2=O` are 128 µM (≈ 37.2 µg/mL), -1.13 V and -0.57 V.
In the same order, the values of `O=C1C(NCCc2ccccc2)=C(Cl)C(=O)c2ncccc21` are 128 µM (≈ 40 µg/mL), -1.15 V and -0.6 V.
Turning to `O=C1C(NC2CCCCCCC2)=CC(=O)c2ncccc21`, the minimum inhibitory concentration (MIC) in test [8] was found to be 3.5 µM (≈ 0.995 µg/mL).
In the case of `NNC(=O)c1ccncc1` [ISONIAZID], the MIC in test [1] worked out at 0.2 µM (≈ 0.0274 µg/mL).
As to `Cc1ccc2c(n1)C(=O)C(Cl)=C(Nc1ccccc1)C2=O`, the MIC in test [1] was 512 µM (≈ 153 µg/mL). Moreover, the Activity in test [2] is -1.05 V; in test [3] it was -0.47 V.
As to `Cc1ccc2c(n1)C(=O)C(N(C)C)=C(Cl)C2=O`, the MIC in test [1] was more than 512 µM. In addition, the Activity in test [2] was -1.13 V; in test [3] it was -0.6 V.
